Consider 21 molecules from US12679822B2, “Alkenyl pyrimidine compound, preparation method therefor, and application thereof” (Hongyun Biotech Co., Ltd., priority 2020, dated 2026).

What all share (format): cell-based
Assay [1] has as its target BaF3 cell lines stably transfected with kinase EGFR Del (Homo sapiens, UniProt P00533, cells depend on it, form not given). Description: Growth inhibition of BaF3 cell line stably transfected with kinase EGFR Del (MTS). The conditions noted are these: 48 h, read-out: growth inhibitory activity IC50, Del. As to the method: (§1) Biological Activity Assay: Growth Inhibitory Activity of Compounds on Cell Lines Stably Transfected with Kinase
(§2) The activity of compounds against various mutants of kinase EGFR was evaluated by their effect of inhibiting growth of BaF3 cell lines stably transfected with kinase. The specific test method was given as follows:
(§3) 1) Culture medium: DMEM (Dulbecco's modified eagle medium) or RPMI 1640 (containing 10% fetal bovine serum, 100 μg/mL ampicillin, 100 μg/mL streptomycin).
(§4) 2) Reagent: MTS reaction solution (containing 2 mg/mL of MTS [3-(4,5-di methylthiazol-2-yl)-5-(3-carboxymethoxyphenyl)-2-(4-sulfophenyl)-2H-tetrazolium, inner Salt]; 100 μg/mL of PES (phenazine […])).
(§5) 3) Compound test: cells were incubated into a 96-well culture plate, the volume of cytosol was 90 μL, and then 10 μL of the compound at each gradient concentration was added. That is, the highest concentration was 10 μM, which was diluted stepwise by ⅓, and 8 concentration points were set in total; 0.1% DMSO (dimethyl sulfoxide) was contained in the system. The cell plate with uniformly mixed compound was cultured in a cell culture incubator (37° C.; 5% […]) for 48 h, then 20 μL of MTS reaction solution was added, uniformly mixed and incubated in the cell culture incubator (37° C.; 5% CO2) for 1-4 h; OD values at 490 nm were measured by a microplate reader (VARIOSKAN FLASH, Thermo). Two parallels were set in each group of experiments, with 0.1% (a final concentration) DMSO as a negative control, and a culture medium without cells and compounds as a blank control. The cell growth inhibition rate was calculated by the following formula: Cell growth inhibition rate %=1−(ODexperimental group−ODblank group)/(ODnegative group−ODblank group)×100%.
(§6) 4) IC50 calculation: The semi-inhibitory concentration of the compounds acting on cells was calculated using GradPad Prism 5 software according to the measured cell growth inhibition rate.

Assay [2] addresses BaF3 cell lines stably transfected with kinase EGFR L858R (Homo sapiens, UniProt P00533, L858R, cells depend on it). The experiment in a line: Growth inhibition of BaF3 cell line stably transfected with kinase EGFR L858R (MTS). As to conditions: 48 h, read-out: growth inhibitory activity IC50, L858R. On the procedure:
as §1, §2, §3, §4, §5, §6

Assay [3] concerns the target BaF3 cell lines stably transfected with kinase EGFR Del/T790M (Homo sapiens, UniProt P00533, T790M, cells depend on it, form not given). The experiment in a line: Growth inhibition of BaF3 cell line stably transfected with kinase EGFR Del/T790M (MTS). As to conditions: 48 h, read-out: growth inhibitory activity IC50, Del/T790M. On the procedure: as §1, §2, §3, §4, §5, §6

Assay [4] addresses BaF3 cell lines stably transfected with kinase EGFR L858R/T790M (Homo sapiens, UniProt P00533, T790M/L858R, cells depend on it). The experiment in a line: Growth inhibition of BaF3 cell line stably transfected with kinase EGFR L858R/T790M (MTS). As to conditions: 48 h, read-out: growth inhibitory activity IC50, L858R/T790M. As to the method:
as §1, §2, §3, §4, §5, §6

Assay [5] concerns the target BaF3 cell lines stably transfected with kinase EGFR Del/T790M/C797S (Homo sapiens, UniProt P00533, T790M/C797S, cells depend on it, form not given). The experiment in a line: Growth inhibition of BaF3 cell line stably transfected with kinase EGFR Del/T790M/C797S (MTS). The conditions noted are these: 48 h, read-out: growth inhibitory activity IC50, Del/T790M/C797S. As to the method: as §1, §2, §3, §4, §5, §6

Assay [6] deals with BaF3 cell lines stably transfected with kinase EGFR L858R/T790M/C797S (Homo sapiens, UniProt P00533, T790M/C797S/L858R, cells depend on it). Description: Growth inhibition of BaF3 cell line stably transfected with kinase EGFR L858R/T790M/C797S (MTS). As to conditions: 48 h, read-out: growth inhibitory activity IC50, L858R/T790M/C797S. On the procedure:
as §1, §2, §3, §4, §5, §6

BaF3 cell lines stably transfected with kinase EGFR Del/T790M, sequence (P00533 with tags, fused parts or gaps DEL746-750/T790M, form open): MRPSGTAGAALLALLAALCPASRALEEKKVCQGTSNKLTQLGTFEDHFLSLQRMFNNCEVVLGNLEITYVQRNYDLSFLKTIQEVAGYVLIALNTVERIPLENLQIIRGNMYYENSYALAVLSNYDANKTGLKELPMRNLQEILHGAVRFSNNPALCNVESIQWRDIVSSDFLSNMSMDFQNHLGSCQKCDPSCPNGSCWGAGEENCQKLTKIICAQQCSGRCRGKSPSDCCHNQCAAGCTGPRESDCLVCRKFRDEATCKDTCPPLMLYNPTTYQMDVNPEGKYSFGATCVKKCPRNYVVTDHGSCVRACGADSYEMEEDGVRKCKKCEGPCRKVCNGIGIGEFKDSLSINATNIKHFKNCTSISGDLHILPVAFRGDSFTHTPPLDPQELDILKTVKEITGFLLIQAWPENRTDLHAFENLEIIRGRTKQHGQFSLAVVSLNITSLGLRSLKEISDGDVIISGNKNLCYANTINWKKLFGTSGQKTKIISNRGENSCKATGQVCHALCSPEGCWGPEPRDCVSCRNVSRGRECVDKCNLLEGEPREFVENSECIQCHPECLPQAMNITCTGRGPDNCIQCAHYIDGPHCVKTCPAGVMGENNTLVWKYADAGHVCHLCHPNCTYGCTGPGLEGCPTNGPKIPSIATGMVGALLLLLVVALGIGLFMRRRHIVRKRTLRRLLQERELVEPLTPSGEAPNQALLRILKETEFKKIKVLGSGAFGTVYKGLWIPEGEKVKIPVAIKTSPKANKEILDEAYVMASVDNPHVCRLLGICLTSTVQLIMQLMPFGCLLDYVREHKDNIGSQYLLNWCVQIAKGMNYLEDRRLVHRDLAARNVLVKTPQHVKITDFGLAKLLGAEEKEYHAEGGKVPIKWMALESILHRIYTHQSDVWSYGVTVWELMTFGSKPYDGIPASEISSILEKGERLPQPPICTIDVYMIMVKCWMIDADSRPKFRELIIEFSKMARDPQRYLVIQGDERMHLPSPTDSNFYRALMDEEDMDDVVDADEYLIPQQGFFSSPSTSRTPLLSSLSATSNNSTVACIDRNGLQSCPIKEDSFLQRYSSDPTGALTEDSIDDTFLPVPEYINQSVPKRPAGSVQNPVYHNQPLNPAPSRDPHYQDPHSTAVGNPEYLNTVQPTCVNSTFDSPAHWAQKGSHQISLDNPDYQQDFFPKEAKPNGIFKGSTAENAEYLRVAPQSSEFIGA
BaF3 cell lines stably transfected with kinase EGFR L858R, sequence (P00533 whole entry L858R): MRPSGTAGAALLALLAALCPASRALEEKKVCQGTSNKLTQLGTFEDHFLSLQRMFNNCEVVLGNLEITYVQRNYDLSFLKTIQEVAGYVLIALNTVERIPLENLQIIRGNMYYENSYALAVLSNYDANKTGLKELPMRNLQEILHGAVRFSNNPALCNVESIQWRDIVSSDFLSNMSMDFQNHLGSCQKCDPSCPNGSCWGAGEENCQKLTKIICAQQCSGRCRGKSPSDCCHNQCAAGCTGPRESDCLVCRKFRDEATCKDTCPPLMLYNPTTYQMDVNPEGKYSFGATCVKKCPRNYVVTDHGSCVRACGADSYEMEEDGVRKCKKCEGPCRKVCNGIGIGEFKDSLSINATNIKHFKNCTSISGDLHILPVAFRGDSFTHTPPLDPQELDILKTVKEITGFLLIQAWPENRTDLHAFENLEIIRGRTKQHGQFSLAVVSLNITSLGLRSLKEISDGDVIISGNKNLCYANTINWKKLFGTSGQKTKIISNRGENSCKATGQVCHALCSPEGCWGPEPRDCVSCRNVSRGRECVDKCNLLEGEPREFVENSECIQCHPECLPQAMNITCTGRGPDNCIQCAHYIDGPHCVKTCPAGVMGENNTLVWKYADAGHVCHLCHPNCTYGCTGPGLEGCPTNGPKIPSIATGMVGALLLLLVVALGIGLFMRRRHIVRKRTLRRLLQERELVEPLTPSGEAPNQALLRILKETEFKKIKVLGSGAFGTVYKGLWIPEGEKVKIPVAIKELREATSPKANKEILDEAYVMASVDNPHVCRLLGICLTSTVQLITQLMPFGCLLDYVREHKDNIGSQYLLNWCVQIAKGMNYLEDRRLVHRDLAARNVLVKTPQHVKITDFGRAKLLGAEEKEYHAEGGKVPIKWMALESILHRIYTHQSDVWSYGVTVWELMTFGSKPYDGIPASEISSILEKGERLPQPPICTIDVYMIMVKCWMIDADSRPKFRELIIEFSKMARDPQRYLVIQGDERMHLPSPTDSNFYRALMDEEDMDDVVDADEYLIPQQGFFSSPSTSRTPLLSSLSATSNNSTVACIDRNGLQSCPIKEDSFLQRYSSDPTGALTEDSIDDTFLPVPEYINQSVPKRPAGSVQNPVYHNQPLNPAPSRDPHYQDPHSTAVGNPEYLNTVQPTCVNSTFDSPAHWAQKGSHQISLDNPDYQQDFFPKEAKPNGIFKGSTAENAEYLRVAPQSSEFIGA
BaF3 cell lines stably transfected with kinase EGFR Del, sequence (P00533 with tags, fused parts or gaps DEL746-750): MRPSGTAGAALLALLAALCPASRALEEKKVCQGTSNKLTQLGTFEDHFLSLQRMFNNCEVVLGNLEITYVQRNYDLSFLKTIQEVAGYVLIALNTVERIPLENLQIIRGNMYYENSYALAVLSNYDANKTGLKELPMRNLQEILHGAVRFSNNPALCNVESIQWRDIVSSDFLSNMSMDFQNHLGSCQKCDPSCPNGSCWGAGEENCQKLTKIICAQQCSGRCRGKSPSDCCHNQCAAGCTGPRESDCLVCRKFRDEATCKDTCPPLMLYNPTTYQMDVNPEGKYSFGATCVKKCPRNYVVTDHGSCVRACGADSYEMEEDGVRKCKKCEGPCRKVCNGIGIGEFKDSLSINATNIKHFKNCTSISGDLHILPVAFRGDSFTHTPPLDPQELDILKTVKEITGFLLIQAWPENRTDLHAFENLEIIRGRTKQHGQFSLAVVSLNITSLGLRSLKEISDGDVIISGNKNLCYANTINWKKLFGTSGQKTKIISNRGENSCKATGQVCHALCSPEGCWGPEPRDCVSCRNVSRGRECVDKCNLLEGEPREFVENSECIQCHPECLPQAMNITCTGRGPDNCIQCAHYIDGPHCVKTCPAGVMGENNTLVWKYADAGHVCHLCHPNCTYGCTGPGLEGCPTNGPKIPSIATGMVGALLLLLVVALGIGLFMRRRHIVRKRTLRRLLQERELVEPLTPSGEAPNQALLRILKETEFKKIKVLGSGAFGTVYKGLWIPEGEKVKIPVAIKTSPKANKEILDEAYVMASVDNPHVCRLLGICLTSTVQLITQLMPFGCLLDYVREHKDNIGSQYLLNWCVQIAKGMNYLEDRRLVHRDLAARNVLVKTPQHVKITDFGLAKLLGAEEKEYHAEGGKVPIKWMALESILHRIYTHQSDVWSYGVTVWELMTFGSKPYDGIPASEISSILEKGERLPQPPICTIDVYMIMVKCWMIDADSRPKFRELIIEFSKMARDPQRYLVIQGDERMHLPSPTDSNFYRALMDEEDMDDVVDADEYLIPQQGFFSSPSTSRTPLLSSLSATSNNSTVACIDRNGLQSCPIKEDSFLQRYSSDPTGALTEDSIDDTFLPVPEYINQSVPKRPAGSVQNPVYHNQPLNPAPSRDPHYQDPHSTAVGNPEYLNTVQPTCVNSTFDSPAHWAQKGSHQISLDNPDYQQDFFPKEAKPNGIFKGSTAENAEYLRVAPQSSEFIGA
BaF3 cell lines stably transfected with kinase EGFR Del/T790M/C797S, sequence (P00533 with tags, fused parts or gaps DEL746-750/T790M/C797S, form open): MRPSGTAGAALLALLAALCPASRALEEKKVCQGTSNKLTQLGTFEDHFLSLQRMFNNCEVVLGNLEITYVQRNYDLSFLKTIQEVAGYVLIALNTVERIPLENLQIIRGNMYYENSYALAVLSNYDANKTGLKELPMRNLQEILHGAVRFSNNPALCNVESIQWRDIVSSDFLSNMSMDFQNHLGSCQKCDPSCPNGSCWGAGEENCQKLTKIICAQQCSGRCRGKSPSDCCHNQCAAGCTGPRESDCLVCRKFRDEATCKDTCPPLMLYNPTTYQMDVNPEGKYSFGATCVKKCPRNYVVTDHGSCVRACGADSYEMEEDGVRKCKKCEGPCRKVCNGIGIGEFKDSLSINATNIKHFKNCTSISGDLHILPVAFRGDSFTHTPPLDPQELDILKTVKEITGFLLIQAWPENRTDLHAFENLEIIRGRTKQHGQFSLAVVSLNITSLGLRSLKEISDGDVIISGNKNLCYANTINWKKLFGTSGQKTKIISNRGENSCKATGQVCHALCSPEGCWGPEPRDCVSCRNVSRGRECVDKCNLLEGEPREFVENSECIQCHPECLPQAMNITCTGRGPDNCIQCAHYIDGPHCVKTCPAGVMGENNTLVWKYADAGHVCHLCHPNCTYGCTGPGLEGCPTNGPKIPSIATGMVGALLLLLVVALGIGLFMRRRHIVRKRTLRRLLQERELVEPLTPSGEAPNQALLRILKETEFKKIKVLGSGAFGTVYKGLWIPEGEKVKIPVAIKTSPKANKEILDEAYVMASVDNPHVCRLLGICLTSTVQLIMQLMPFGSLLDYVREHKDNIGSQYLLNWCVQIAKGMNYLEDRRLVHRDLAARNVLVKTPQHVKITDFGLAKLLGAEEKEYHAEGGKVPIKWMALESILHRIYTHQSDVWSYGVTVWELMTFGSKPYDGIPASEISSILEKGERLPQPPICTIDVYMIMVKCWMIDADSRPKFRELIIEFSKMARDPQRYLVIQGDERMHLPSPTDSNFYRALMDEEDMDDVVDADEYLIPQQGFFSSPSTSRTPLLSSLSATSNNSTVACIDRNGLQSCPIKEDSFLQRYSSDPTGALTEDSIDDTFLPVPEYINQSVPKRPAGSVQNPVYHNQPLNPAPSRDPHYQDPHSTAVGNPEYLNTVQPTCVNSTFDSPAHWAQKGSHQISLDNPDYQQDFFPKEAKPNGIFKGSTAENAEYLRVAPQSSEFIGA

With `C=Cc1cnc(Nc2cc(CC)c(N3CCC(N4CCN(C)CC4)CC3)cc2OC)nc1Nc1ccc2nccnc2c1P(C)(C)=O` [Compound I-1], the GI50 in assay [1], in assay [2], in assay [3], in assay [4], in assay [5] and in assay [6] was not above 50 nM throughout.
In the case of `C=Cc1cnc(Nc2cc(CC)c(N3CCC(N(C)C)CC3)cc2OC)nc1Nc1ccc2nccnc2c1P(C)(C)=O` [Compound I-2], the GI50 in assay [1], in assay [2], in assay [3], in assay [4], in assay [5] and in assay [6] was not above 50 nM each time.
As to `C=Cc1cnc(Nc2cc(CC)c(N3CCC(C(C)C)C3)cc2OC)nc1Nc1ccc2nccnc2c1P(C)(C)=O` (stereo not drawn) [Compound I-3], the GI50 was 50 to 500 nM in assay [1]; not above 50 nM in assay [2]; not above 50 nM in assay [3]; 50 to 500 nM in assay [4]; not above 50 nM in assay [5]; not above 50 nM in assay [6].
Turning to `C=Cc1cnc(Nc2cc(CC)c(N3CCN(C)CC3)cc2OC)nc1Nc1ccc2nccnc2c1P(C)(C)=O` [Compound I-4], the GI50 in assay [1], in assay [2], in assay [3], in assay [4], in assay [5] and in assay [6] was not above 50 nM in each case.
On to `C=Cc1cnc(Nc2cc(CC)c(N3CCC(N4CCN(C)CC4)CC3)nc2OC)nc1Nc1ccc2nccnc2c1P(C)(C)=O` [Compound I-5], for which the GI50 in assay [1], in assay [2], in assay [3], in assay [4], in assay [5] and in assay [6] was not above 50 nM each time.
Take `C=Cc1cnc(Nc2cc(CC)c(N3CCC(N4CCN(C)CC4)CC3)cc2OC(F)(F)F)nc1Nc1ccc2nccnc2c1P(C)(C)=O` [Compound I-6]: the GI50 in assay [1] is 50 to 500 nM; in assay [2], not above 50 nM; in assay [3], not above 50 nM; in assay [4], not above 50 nM; in assay [5] it was not above 50 nM; in assay [6], not above 50 nM.
`C=Cc1cnc(Nc2cc(CC3CC3)c(N3CCC(N4CCN(C)CC4)CC3)cc2OC)nc1Nc1ccc2nccnc2c1P(C)(C)=O` [Compound I-7]: the GI50 in assay [1], in assay [2], in assay [3], in assay [4], in assay [5] and in assay [6] was not above 50 nM throughout.
Regarding `C=Cc1cnc(Nc2cc(C)c(N3CCC(N4CCN(C)CC4)CC3)cc2OC)nc1Nc1ccc2nccnc2c1P(C)(C)=O` [Compound I-9], the GI50 in assay [1], in assay [2], in assay [3], in assay [4], in assay [5] and in assay [6] was not above 50 nM each time.
Regarding `CCc1cc(Nc2ncc(C=C(C)C)c(Nc3ccc4nccnc4c3P(C)(C)=O)n2)c(OC)cc1N1CCC(N2CCN(C)CC2)CC1` [Compound I-10], the GI50 in assay [1] is not above 50 nM; in assay [2], not above 50 nM; in assay [3], 500 to 2500 nM; in assay [4], 50 to 500 nM; in assay [5], 50 to 500 nM; in assay [6], 50 to 500 nM.
`CCc1cc(Nc2ncc(/C=C/C3CC3)c(Nc3ccc4nccnc4c3P(C)(C)=O)n2)c(OC)cc1N1CCC(N2CCN(C)CC2)CC1` [Compound I-11]: the GI50 in assay [1] is not above 50 nM; in assay [2] it was not above 50 nM; in assay [3], 50 to 500 nM; in assay [4], 50 to 500 nM; in assay [5], 50 to 500 nM; in assay [6], 50 to 500 nM.
Consider `CCc1cc(Nc2ncc(C3=CCCC3)c(Nc3ccc4nccnc4c3P(C)(C)=O)n2)c(OC)cc1N1CCC(N2CCN(C)CC2)CC1` [Compound I-13], for which the GI50 in assay [1] is not above 50 nM; in assay [2], not above 50 nM; in assay [3], 50 to 500 nM; in assay [4], 50 to 500 nM; in assay [5] it was 50 to 500 nM; in assay [6], 50 to 500 nM.
As to `CCc1cc(Nc2ncc(/C=C/c3ccccc3)c(Nc3ccc4nccnc4c3P(C)(C)=O)n2)c(OC)cc1N1CCC(N2CCN(C)CC2)CC1` [Compound I-14], the GI50 in assay [1] is 50 to 500 nM; in assay [2], not above 50 nM; in assay [3], 50 to 500 nM; in assay [4], 500 to 2500 nM; in assay [5], 50 to 500 nM; in assay [6], 50 to 500 nM.
Regarding `C=C(C)c1cnc(Nc2cc(CC)c(N3CCC(N4CCN(C)CC4)CC3)cc2OC)nc1Nc1ccc2nccnc2c1P(C)(C)=O` [Compound I-15], the GI50 in assay [1], in assay [2], in assay [3], in assay [4], in assay [5] and in assay [6] was not above 50 nM throughout.
Turning to `C=Cc1cnc(Nc2cc(C(C)C)c(N3CCC(N4CCN(C)CC4)CC3)cc2OC)nc1Nc1ccc2nccnc2c1P(C)(C)=O` [Compound I-16], the GI50 in assay [1], in assay [2], in assay [3], in assay [4], in assay [5] and in assay [6] was 50 to 500 nM in each case.
Take `C=Cc1cnc(Nc2cc(C3CC3)c(N3CCC(N4CCN(C)CC4)CC3)cc2OC)nc1Nc1ccc2nccnc2c1P(C)(C)=O` [Compound I-17]: the GI50 in assay [1], in assay [2], in assay [3], in assay [4], in assay [5] and in assay [6] was 50 to 500 nM each time.
Take `C=Cc1cnc(Nc2ccc(N3CCC(N4CCN(C)CC4)CC3)c(CC)c2)nc1Nc1ccc2nccnc2c1P(C)(C)=O` [Compound I-18]: the GI50 was 50 to 500 nM in assay [1]; not above 50 nM in assay [2]; 50 to 500 nM in assay [3]; 50 to 500 nM in assay [4]; not above 50 nM in assay [5]; not above 50 nM in assay [6].
As to `C=C(C)c1cnc(Nc2ccc(N3CCC(N4CCN(C)CC4)CC3)nc2OC)nc1Nc1ccc2nccnc2c1P(C)(C)=O` [Compound I-19], the GI50 in assay [1] is not above 50 nM; in assay [2], 50 to 500 nM; in assay [3], 50 to 500 nM; in assay [4], not above 50 nM; in assay [5] it was 500 to 2500 nM; in assay [6] it was 50 to 500 nM.
Take `C=C(C)c1cnc(Nc2cc(C)c(N3CCC(N4CCN(C)CC4)CC3)nc2OC)nc1Nc1ccc2nccnc2c1P(C)(C)=O` [Compound I-20]: the GI50 in assay [1] was 500 to 2500 nM; in assay [2], 50 to 500 nM; in assay [3], 50 to 500 nM; in assay [4], 50 to 500 nM; in assay [5] it was 500 to 2500 nM; in assay [6] it was 500 to 2500 nM.
As for `C=Cc1cnc(Nc2cccc(C3CCN(C)CC3)c2)nc1Nc1ccc2nccnc2c1P(C)(C)=O` [Compound I-22], the GI50 in assay [1] is 50 to 500 nM; in assay [2], 50 to 500 nM; in assay [3], 50 to 500 nM; in assay [4], not above 50 nM; in assay [5], 500 to 2500 nM; in assay [6] it was 50 to 500 nM.
Consider `C=Cc1cnc(Nc2cc3c(cc2F)CCN(C)C3)nc1Nc1ccc2nccnc2c1P(C)(C)=O` [Compound I-23], for which the GI50 in assay [1] was in the range of 50 to 500 nM; in assay [2], 50 to 500 nM; in assay [3], 50 to 500 nM; in assay [4], 50 to 500 nM; in assay [5] it was 500 to 2500 nM; in assay [6], 50 to 500 nM.
As for `C=Cc1cnc(Nc2ccc3c(c2)CCN(C)CC3)nc1Nc1ccc2nccnc2c1P(C)(C)=O` [Compound I-24], the GI50 in assay [1] is 50 to 500 nM; in assay [2], not above 50 nM; in assay [3] it was 50 to 500 nM; in assay [4], 50 to 500 nM; in assay [5] it was 50 to 500 nM; in assay [6], 50 to 500 nM.
